# Laboratory results as given in PubChem BioAssay (NCI).
#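 Abbreviation: GI50, concentration required for 50% inhibition of growth. At the TGI there is no net growth.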
# Assays:
# Assay in all cases: growth of human tumour cells (NCI), 384-well format
# 786-0 renal = test system: 786-0 renal
# A498 renal = test system: A498 renal
# A549 NSCLC = test system: A549 NSCLC
# ACHN renal = test system: ACHN renal
# BT-549 breast = test system: BT-549 breast
# CAKI-1 renal = test system: CAKI-1 renal
# CCRF-CEM leukemia = test system: CCRF-CEM leukemia
# DU-145 prostate = test system: DU-145 prostate
# EKVX NSCLC = test system: EKVX NSCLC
# HCC-2998 colon = test system: HCC-2998 colon
# HCT-116 colon = test system: HCT-116 colon
# HCT-15 colon = test system: HCT-15 colon
# HL-60(TB) leukemia = test system: HL-60(TB) leukemia
# HOP-62 NSCLC = test system: HOP-62 NSCLC
# HOP-92 NSCLC = test system: HOP-92 NSCLC
# HS 578T breast = test system: HS 578T breast
# HT29 colon = test system: HT29 colon
# IGROV1 ovarian = test system: IGROV1 ovarian
# K-562 leukemia = test system: K-562 leukemia
# KM12 colon = test system: KM12 colon
# LOX IMVI melanoma = test system: LOX IMVI melanoma
# M14 melanoma = test system: M14 melanoma
# MALME-3M melanoma = test system: MALME-3M melanoma
# MCF7 breast = test system: MCF7 breast
# MDA-MB-231 breast = test system: MDA-MB-231 breast
# MDA-MB-435 melanoma = test system: MDA-MB-435 melanoma
# MDA-MB-468 breast = test system: MDA-MB-468 breast
# MOLT-4 leukemia = test system: MOLT-4 leukemia
# NCI-H226 lung = test system: NCI-H226 lung
# NCI-H23 lung = test system: NCI-H23 lung
# NCI-H322M lung = test system: NCI-H322M lung
# NCI-H460 NSCLC = test system: NCI-H460 NSCLC
# NCI-H522 lung = test system: NCI-H522 lung
# NCI/ADR-RES ovarian = test system: NCI/ADR-RES ovarian
# OVCAR-3 ovarian = test system: OVCAR-3 ovarian
# OVCAR-4 ovarian = test system: OVCAR-4 ovarian
# OVCAR-5 ovarian = test system: OVCAR-5 ovarian
# PC-3 prostate = test system: PC-3 prostate
# RPMI-8226 leukemia = test system: RPMI-8226 leukemia
# RXF 393 renal = test system: RXF 393 renal
# SF-268 CNS = test system: SF-268 CNS
# SF-295 CNS = test system: SF-295 CNS
# SF-539 CNS = test system: SF-539 CNS
# SK-MEL-2 melanoma = test system: SK-MEL-2 melanoma
# SK-MEL-28 melanoma = test system: SK-MEL-28 melanoma
# SK-MEL-5 melanoma = test system: SK-MEL-5 melanoma
# SK-OV-3 ovarian = test system: SK-OV-3 ovarian
# SN12C renal = test system: SN12C renal
# SNB-19 CNS = test system: SNB-19 CNS
# SNB-75 CNS = test system: SNB-75 CNS
# SR leukemia = test system: SR leukemia
# SW-620 colon = test system: SW-620 colon
# T-47D breast = test system: T-47D breast
# TK-10 renal = test system: TK-10 renal
# U251 glioblastoma = test system: U251 glioblastoma
# UACC-257 melanoma = test system: UACC-257 melanoma
# UACC-62 melanoma = test system: UACC-62 melanoma
# UO-31 renal = test system: UO-31 renal
smiles,measurement,setting,value
CC(C)C[C@H](NC(=O)CNC(=O)c1cc(Cl)ccc1Cl)B(O)O,GI50,786-0 renal,37.7 nM
same,TGI,786-0 renal,170 nM
same,GI50,A498 renal,71.4 nM
same,TGI,A498 renal,1310 nM
same,GI50,A549 NSCLC,130 nM
same,TGI,A549 NSCLC,1680 nM
same,GI50,ACHN renal,20.8 nM
same,TGI,ACHN renal,71.2 nM
same,GI50,BT-549 breast,20.6 nM
same,TGI,BT-549 breast,36.3 nM
same,GI50,CAKI-1 renal,31.2 nM
same,TGI,CAKI-1 renal,155 nM
same,GI50,CCRF-CEM leukemia,< 10 nM
same,GI50,DU-145 prostate,46.7 nM
same,TGI,DU-145 prostate,457 nM
same,GI50,EKVX NSCLC,83 nM
same,TGI,EKVX NSCLC,396 nM
same,GI50,HCC-2998 colon,30.6 nM
same,TGI,HCC-2998 colon,130 nM
same,GI50,HCT-116 colon,17.5 nM
same,TGI,HCT-116 colon,34 nM
same,GI50,HCT-15 colon,29.2 nM
same,TGI,HCT-15 colon,115 nM
same,GI50,HL-60(TB) leukemia,10.9 nM
same,TGI,HL-60(TB) leukemia,23 nM
same,GI50,HOP-62 NSCLC,54.7 nM
same,TGI,HOP-62 NSCLC,268 nM
same,GI50,HOP-92 NSCLC,27.5 nM
same,TGI,HOP-92 NSCLC,81.7 nM
same,GI50,HS 578T breast,20.9 nM
same,TGI,HS 578T breast,39.4 nM
same,GI50,HT29 colon,19.8 nM
same,TGI,HT29 colon,45.2 nM
same,GI50,IGROV1 ovarian,80.2 nM
same,TGI,IGROV1 ovarian,590 nM
same,GI50,K-562 leukemia,33.8 nM
same,TGI,K-562 leukemia,126 nM
same,GI50,KM12 colon,50.7 nM
same,TGI,KM12 colon,165 nM
same,GI50,LOX IMVI melanoma,40.6 nM
same,TGI,LOX IMVI melanoma,136 nM
same,GI50,M14 melanoma,17.1 nM
same,TGI,M14 melanoma,32.4 nM
same,GI50,MALME-3M melanoma,16.9 nM
same,TGI,MALME-3M melanoma,35 nM
same,GI50,MCF7 breast,34.7 nM
same,TGI,MCF7 breast,2660 nM
same,GI50,MDA-MB-231 breast,29.3 nM
same,TGI,MDA-MB-231 breast,66.1 nM
same,GI50,MDA-MB-435 melanoma,16 nM
same,TGI,MDA-MB-435 melanoma,30.2 nM
same,GI50,MDA-MB-468 breast,18.9 nM
same,TGI,MDA-MB-468 breast,38.7 nM
same,GI50,MOLT-4 leukemia,< 10 nM
same,TGI,MOLT-4 leukemia,11.4 nM
same,GI50,NCI-H226 lung,11.1 nM
same,TGI,NCI-H226 lung,23.6 nM
same,GI50,NCI-H23 lung,22.7 nM
same,TGI,NCI-H23 lung,65.5 nM
same,GI50,NCI-H322M lung,572 nM
same,TGI,NCI-H322M lung,6500 nM
same,GI50,NCI-H460 NSCLC,61.6 nM
same,TGI,NCI-H460 NSCLC,263 nM
same,GI50,NCI-H522 lung,16.5 nM
same,TGI,NCI-H522 lung,30.9 nM
same,GI50,NCI/ADR-RES ovarian,235 nM
same,TGI,NCI/ADR-RES ovarian,781 nM
same,GI50,OVCAR-3 ovarian,14.9 nM
same,TGI,OVCAR-3 ovarian,31.4 nM
same,GI50,OVCAR-4 ovarian,82.1 nM
same,TGI,OVCAR-4 ovarian,219 nM
same,GI50,OVCAR-5 ovarian,66.6 nM
same,TGI,OVCAR-5 ovarian,277 nM
same,GI50,PC-3 prostate,90.8 nM
same,TGI,PC-3 prostate,298 nM
same,GI50,RPMI-8226 leukemia,< 10 nM
same,GI50,RXF 393 renal,18 nM
same,TGI,RXF 393 renal,33 nM
same,GI50,SF-268 CNS,26 nM
same,TGI,SF-268 CNS,60.6 nM
same,GI50,SF-295 CNS,55.5 nM
same,TGI,SF-295 CNS,236 nM
same,GI50,SF-539 CNS,20.7 nM
same,TGI,SF-539 CNS,35.2 nM
same,GI50,SK-MEL-2 melanoma,33.6 nM
same,TGI,SK-MEL-2 melanoma,51.3 nM
same,GI50,SK-MEL-28 melanoma,16.6 nM
same,TGI,SK-MEL-28 melanoma,32 nM
same,GI50,SK-MEL-5 melanoma,19.7 nM
same,TGI,SK-MEL-5 melanoma,41.7 nM
same,GI50,SK-OV-3 ovarian,184 nM
same,TGI,SK-OV-3 ovarian,1520 nM
same,GI50,SN12C renal,62.2 nM
same,TGI,SN12C renal,243 nM
same,GI50,SNB-19 CNS,84.2 nM
same,TGI,SNB-19 CNS,421 nM
same,GI50,SNB-75 CNS,111 nM
same,TGI,SNB-75 CNS,299 nM
same,GI50,SR leukemia,11.1 nM
same,TGI,SR leukemia,23.4 nM
same,GI50,SW-620 colon,17.7 nM
same,TGI,SW-620 colon,34 nM
same,GI50,T-47D breast,32.9 nM
same,TGI,T-47D breast,62.8 nM
same,GI50,TK-10 renal,20.8 nM
same,TGI,TK-10 renal,54 nM
same,GI50,U251 glioblastoma,67.6 nM
same,TGI,U251 glioblastoma,1100 nM
same,GI50,UACC-257 melanoma,20 nM
same,TGI,UACC-257 melanoma,36.7 nM
same,GI50,UACC-62 melanoma,27.5 nM
same,TGI,UACC-62 melanoma,81.1 nM
same,GI50,UO-31 renal,26.3 nM
same,TGI,UO-31 renal,66.1 nM
